≈ marks a conversion by molar mass, not a printed value.
System: anaphylactic asthma in guinea pigs
Assay: Antagonistic action on anaphylactic asthma in guinea pigs
Type: in vivo, guinea pigs (male Hartley-strain)
Conditions: Cavia porcellus; oral, 30 minutes prior to egg-white albumin aerosol; survival not less than 2 hours after antigen spraying; read-out: Prophylactic Effect ED50
Protocol: Antagonistic action on anaphylactic asthma in guinea pigs
Male Hartley-strain guinea pigs weighing 305-400 g were used. These animals were sensitized by intravenous injection of 0.5 ml/animal of rabbit antiserum to egg-white albumin (PCA antibody titer 4,000). After 24 hours, the animals were housed individually in 5.3-liter plastic chambers. Using a commercial sprayer, a 5% egg-white albumin solution was sprayed in the form of an aerosol into each chamber at a rate of 0.16 ml/min for 2 minutes. Thirty minutes prior to the spraying of the egg-white albumin solution, the test compound was administered orally in varied concentrations. Each dosed group consisted of 5 animals. The prophylactic effect to anaphylaxis was expressed in terms of the ED50 value determined on the basis of the number of guinea pigs which had survived for not less than 2 hours after antigen spraying for each administration concentration of the test compound.

| SMILES | ED50 [mg/kg] |
| --- | --- |
| CS(=O)(=O)Nc1nc(CN2CCC(OC(c3ccccc3)c3ccccc3)CC2)cs1 [Compound A, 2-Mesylamino-4-[4-(diphenylmethoxy)piperidinomethyl]thiazole] | 0.03 |

System: SRS-A synthesis or release from peritoneal exudate cells (5-lipoxygenase)
Assay: Anti-SRS-A activity (5-lipoxygenase inhibitory activity)
Type: cell-based, SD rats
Conditions: A23187 (1 μg/ml)-stimulated rat peritoneal exudate cells, indomethacin 10 μg/ml; SRS-A by contractility of isolated guinea pig ileum; read-out: Inhibitory Concentration IC50
Protocol: Anti-SRS-A activity (5-lipoxygenase inhibitory activity)
Peritoneal exudate cells were collected from glycogen-injected SD rats and adjusted to 1×10^7 cells/ml with Tyrode's solution. One milliliter of the cell suspension was incubated with indomethacin (10 μg/ml) and each varied concentration of the test compound for 10 minutes and, then, further incubated with Ca^++ -ionophore (A23187, 1 μg/ml) for 10 minutes. The supernatant was collected by centrifugation and the SRS-A (slow-reacting substance of anaphylaxis) activity was determined in terms of contractility of the isolated guinea pig ileum in the presence of mepyramine, atropine and methysergide.
The results were expressed in terms of the 50% inhibitory concentration to SRS-A synthesis or release from peritoneal exudate cells.

| SMILES | IC50 [µg/mL] |
| --- | --- |
| CCOC(=O)Nc1nc(CN2CCC(OC(c3ccccc3)c3ccccc3)CC2)cs1 [Compound F, 2-Ethoxycarbonylamino-4-[4-(diphenylmethoxy)piperidinomethyl]thiazole] | 0.014 (≈ 0.031 µM) |
| O=C(Nc1nc(CN2CCC(OC(c3ccccc3)c3ccccc3)CC2)cs1)C1CC1 [Compound D, 2-Cyclopropylcarbonylamino-4-[4-(diphenylmethoxy)piperidinomethyl]thiazole] | 0.011 (≈ 0.0246 µM) |
| C[C@@H](O)C(=O)Nc1nc(CN2CCC(OC(c3ccccc3)c3ccccc3)CC2)cs1 [Compound E, 2-(D-Lactoylamino)-4-[4-(diphenylmethoxy)piperidinomethyl]thiazole] | 0.015 (≈ 0.0332 µM) |
| CCC(=O)Nc1nc(CN2CCC(OC(c3ccccc3)c3ccccc3)CC2)cs1 [Compound B, 2-Propionylamino-4-[4-(diphenylmethoxy)piperidinomethyl]thiazole] | 0.023 (≈ 0.0528 µM) |
| CNC(=O)Nc1nc(CN2CCC(OC(c3ccccc3)c3ccccc3)CC2)cs1 [Compound G, 2-(3-Methylureido)-4-[4-(diphenylmethoxy)piperidinomethyl]thiazole] | 0.015 (≈ 0.0344 µM) |
| CCCC(=O)Nc1nc(CN2CCC(OC(c3ccccc3)c3ccccc3)CC2)cs1 [Compound C, 2-Butyrylamino-4-[4-(diphenylmethoxy)piperidinomethyl]thiazole] | 0.023 (≈ 0.0512 µM) |

From US4921887A, “Thiazole compounds and pharmaceutical composition comprising the same” (Fujisawa Pharmaceutical Company, Ltd., priority 1987, dated 1990)
